In ChEMBL document CHEMBL4190309, “Synthesis, antimicrobial, DNA cleavage and antioxidant activities of tricyclic sultams derived from saccharin” (Eur J Med Chem, 2017):
Converted amounts (≈) assume the structure as drawn. The source made the active and inactive calls. The calls are words filed in the database; no cut-off is given here.

Assays:
DNA [1] = experiment: Induction of Escherichia coli DNA cleavage at 6 uM after 1 hr by […] staining-based agarose gel electrophoresis; format: nucleic-acid assay
DNA [2] = experiment: Induction of Escherichia coli DNA cleavage after 1 hr by […] staining-based agarose gel electrophoresis; format: nucleic-acid assay
Escherichia coli [3] = experiment: Antibacterial activity against Escherichia coli ATCC 25922 after 24 hrs by serial dilution method; format: functional; details: ATCC 25922, 24 h
[4] = Antioxidant activity assessed as ABTS radical scavenging activity at 2 uM by spectrophotometric analysis; format: functional
Pseudomonas aeruginosa [5] = experiment: Antibacterial activity against Pseudomonas aeruginosa ATCC 27853 assessed as diameter of inhibition zone at 100 uM after 24 hrs by cup diffusion method; format: functional; details: ATCC 27853, 24 h, read-out: DIZ
[6] = Antioxidant activity assessed as superoxide anion scavenging activity at pH 8.3 by NBT/NADH/PMS assay; format: functional
DNA [7] = experiment: Induction of Escherichia coli DNA cleavage at 10 to 12 uM after 1 hr by […] staining-based agarose gel electrophoresis; format: nucleic-acid assay
[8] = Antiproliferative activity against hepatic cancer cells (unknown origin) at 50 uM by MTT assay relative to control; format: functional
DNA [9] = experiment: Induction of Escherichia coli DNA cleavage at 4 uM after 1 hr by […] staining-based agarose gel electrophoresis; format: nucleic-acid assay
Staphylococcus aureus [10] = experiment: Antibacterial activity against Staphylococcus aureus ATCC 25923 after 24 hrs by serial dilution method; format: functional; details: ATCC 25923, 24 h
Pseudomonas aeruginosa [11] = experiment: Antibacterial activity against Pseudomonas aeruginosa ATCC 27853 after 24 hrs by serial dilution method; format: functional; details: ATCC 27853, 24 h
Priestia megaterium = experiment: Antibacterial activity against Bacillus megaterium ATCC 14591 assessed as diameter of inhibition zone at 100 uM after 24 hrs by cup diffusion method; format: functional; details: ATCC 14591, 24 h, read-out: DIZ
Staphylococcus aureus [12] = experiment: Antibacterial activity against Staphylococcus aureus ATCC 25923 assessed as diameter of inhibition zone at 100 uM after 24 hrs by cup diffusion method; format: functional; details: ATCC 25923, 24 h, read-out: DIZ
[13] = Antioxidant activity assessed as superoxide anion scavenging activity at 2 uM at pH 8.3 by NBT/NADH/PMS assay relative to control; format: functional
DNA [14] = experiment: Induction of Escherichia coli DNA cleavage at 2 uM after 1 hr by […] staining-based agarose gel electrophoresis; format: nucleic-acid assay
Escherichia coli [15] = experiment: Antibacterial activity against Escherichia coli ATCC 25922 assessed as diameter of inhibition zone at 100 uM after 24 hrs by cup diffusion method; format: functional; details: ATCC 25922, 24 h, read-out: DIZ
DNA [16] = experiment: Induction of Escherichia coli DNA cleavage at 8 uM after 1 hr by […] staining-based agarose gel electrophoresis; format: nucleic-acid assay

SMILES	Activity (DNA [1])	Activity (DNA [2])	MIC (Escherichia coli [3]) [µg/mL]	IC50 [6] [nM]	Activity (DNA [7])	Activity (DNA [9])	MIC (Staphylococcus aureus [10]) [µg/mL]	MIC (Pseudomonas aeruginosa [11]) [µg/mL]	Activity (DNA [14])	Activity (DNA [16])	Activity [4] [%]	zone of inhibition at 100 µM (Pseudomonas aeruginosa [5]) [mm]	Activity [6]	Activity [8] [%]	zone of inhibition at 100 µM (Priestia megaterium) [mm]	zone of inhibition at 100 µM (Staphylococcus aureus [12]) [mm]	Activity [13] [%]	zone of inhibition at 100 µM (Escherichia coli [15]) [mm]
CC1(C)[C@H]2CC[C@]1(C)[C@H](OC(=O)C1=C3c4ccccc4S(=O)(=O)N3CC1)C2	Active	Dose-dependent effect	23 (≈ 59.4 µM)	1660	Active		18 (≈ 46.5 µM)	27 (≈ 69.7 µM)	inactive	Active	62.7	14	Dose-dependent effect	63	17	18	60.1	16
CN[C@H](CC(C)C)C(=O)N[C@H]1C(=O)N[C@@H](CC(N)=O)C(=O)N[C@H]2C(=O)N[C@H]3C(=O)N[C@H](C(=O)N[C@H](C(=O)O)c4cc(O)cc(O)c4-c4cc3ccc4O)[C@H](O)c3ccc(c(Cl)c3)Oc3cc2cc(c3O[C@@H]2O[C@H](CO)[C@@H](O)[C@H](O)[C@H]2O[C@H]2C[C@](C)(N)[C@H](O)[C@H](C)O2)Oc2ccc(cc2Cl)[C@H]1O [VANCOMYCIN]							14 (≈ 9.66 µM)											
CCOC(=O)C1=C2c3ccccc3S(=O)(=O)N2CC1		Dose-dependent effect	18 (≈ 64.4 µM)	2070	Active		14 (≈ 50.1 µM)	15 (≈ 53.7 µM)	inactive	Active	46.7	14	Dose-dependent effect	19.6	16	17	48.3	16
CC(C)[C@@H]1CC[C@@H](C)C[C@H]1OC(=O)C1=C2c3ccccc3S(=O)(=O)N2CC1	Active	Dose-dependent effect	33 (≈ 84.7 µM)	1710	Active	Active	24 (≈ 61.6 µM)	25 (≈ 64.2 µM)	inactive	Active	60.3	18	Dose-dependent effect	70.2	18	19	58.6	17
O=C(OCCCl)C1=C2c3ccccc3S(=O)(=O)N2CC1	Active	Dose-dependent effect	21 (≈ 66.9 µM)	1580	Active	Active	8 (≈ 25.5 µM)	20 (≈ 63.7 µM)	inactive	Active	64.8	18	Dose-dependent effect	59.6	20	20	63.1	17
CC1(C)S[C@@H]2[C@H](NC(=O)[C@H](N)c3ccccc3)C(=O)N2[C@H]1C(=O)O [AMPICILLIN]												20			21	23		19

Further lines, with some results ahead:

Activity (DNA [1])	Activity (DNA [2])	MIC (Escherichia coli [3]) [µg/mL]	IC50 [6] [nM]	Activity (DNA [7])	Activity (DNA [9])	MIC (Staphylococcus aureus [10]) [µg/mL]	MIC (Pseudomonas aeruginosa [11]) [µg/mL]	Activity (DNA [14])	Activity (DNA [16])	SMILES	Activity [4] [%]	zone of inhibition at 100 µM (Pseudomonas aeruginosa [5]) [mm]	Activity [6]	Activity [8] [%]	zone of inhibition at 100 µM (Priestia megaterium) [mm]	zone of inhibition at 100 µM (Staphylococcus aureus [12]) [mm]	Activity [13] [%]	zone of inhibition at 100 µM (Escherichia coli [15]) [mm]
Active	Dose-dependent effect	11 (≈ 32.3 µM)	1620	Active	Active	12 (≈ 35.3 µM)	17 (≈ 49.9 µM)	inactive		Cc1ccccc1NC(=O)C1=C2c3ccccc3S(=O)(=O)N2CC1	62.5	18	Dose-dependent effect	49.6	20	19	61.7	17
Active	Dose-dependent effect	15 (≈ 56.5 µM)	1680	Active		15 (≈ 56.5 µM)	14 (≈ 52.8 µM)	inactive	Active	COC(=O)C1=C2c3ccccc3S(=O)(=O)N2CC1	63.8	16	Dose-dependent effect	36.6	19	20	59.4	17
	Dose-dependent effect	24 (≈ 64.6 µM)	1950	Active		18 (≈ 48.5 µM)	19 (≈ 51.2 µM)	inactive	Active	O=C(Nc1ccc([N+](=O)[O-])cc1)C1=C2c3ccccc3S(=O)(=O)N2CC1	54.7	14	Dose-dependent effect	56.6	11	12	51.2	13
	Dose-dependent effect	22 (≈ 61.7 µM)	2020	Active		22 (≈ 61.7 µM)	33 (≈ 92.6 µM)	inactive	Active	COc1ccc(NC(=O)C2=C3c4ccccc4S(=O)(=O)N3CC2)cc1	48.2	14	Dose-dependent effect	61	13	16	49.4	15
	Dose-dependent effect	21 (≈ 64.3 µM)	2230	Active		16 (≈ 49 µM)	28 (≈ 85.8 µM)	inactive		O=C(Nc1ccccc1)C1=C2c3ccccc3S(=O)(=O)N2CC1	46.9	12	Dose-dependent effect	58.6	12	14	44.8	13
